Four compounds from patent US20180271857A1, “TREATMENT OF CANCER BY INHIBITING EZH2 ACTIVITY” (University of Copenhagen, priority 2014, published 2018) can be followed below.

In test [1] the target is T1, Human PRC2 complex (EZH2, EED, SUZ12, RbAp48, AEBP2) (Homo sapiens, UniProt Q15910).
T1 construct: FLAG (N); made in house; host or cells: Sf9 insect cells
The test can be described thus: EZH2 methyltransferase activity within PRC2 complex, scintillation proximity assay (Example 2). The format is biochemical. To be noted: determined as described in Example 2; inhibition of methyltransferase activity of EZH2 within PRC2. As for the experimental part: Compounds can be evaluated for their ability to inhibit the methyltransferase activity of EZH2 within the PRC2 complex using the following assay. Human PRC2 complex is prepared by co-expressing each of the 5 member proteins (EZH2, EED, SUZ12, RbAp48, AEBP2) in Sf9 cells followed by co-purification. The proteins may be expressed as tagged versions, e.g. EZH2 may be expressed as FLAG-EZH2. The tag can be used for purification.
Enzyme activity is measured in a scintillation proximity assay (SPA) where a tritiated methyl group is transferred from 3H-SAM to a lysine residue on Histone H3 of a mononucleosome, purified from HeLa cells. Mononucleosomes are captured on SPA beads and the resulting signal is read on a ViewLux plate reader. SPA beads are e.g. available from Perkin Elmer, United States. This may be done as described in Garapaty-Rao et al, 2013 Identification of EZH2 and EZH1 small molecule inhibitors with selective impact on diffuse large B cell lymphoma cell growth. Chemistry and Biology 20, 1329-1339.
1. […]
1. Read the assay plates on the Viewlux Plate Reader utilizing the 613 nm emission filter with a 300 s read time. […]
Percent inhibition is calculated relative to the DMSO control for each compound concentration and the resulting values are fit using standard IC50 fitting parameters within the ABASE data fitting software package.

Test [2] relates to PDGFB NSCs expressing either WT or K27M mutant H3.3. The test can be described thus: Colony formation assay of PDGFB NSCs (FIG. 2C). Particulars: 2000 cells plated, colonies after 9 days. The format is cell-based, mouse.
Test [3] deals with Ink4a−/−/Arf−/− NSCs expressing constitutive active epidermal growth factor receptor (*EGFR). The test can be described thus: Cell proliferation of adult GBM model cells (FIG. 4). Type of test: cell-based, mouse. Particulars: inhibitor vs DMSO. The text has this:
Cell proliferation of DMSO or EZH2 inhibitor treated Ink4a/Arf−/−*EGFR NSCs.
A mouse model representing adult classical subtype of GBM subtypes was investigated.

Test [4] concerns PDGFB NSCs expressing either WT or K27M mutant H3.3. Particulars: 3 μM inhibitor vs DMSO.
From the text: Cells were harvested and counted using Neubauer chamber every 3-4 days.
A further test concerns EZH2. Particulars: PDGFB NSCs, different concentrations for 3 days, FIG. 2A.
For test [5], the system named is Ezh2f/f; PDGFB/H3K27M NSCs injected into the mouse pons. The test can be described thus: Survival of mice bearing Ezh2f/f; PDGFB/H3K27M NSC tumours treated in vivo (FIG. 3c). To be noted: 10^4 cells injected into the pons, treatment after 3 weeks, vs oil-treated control.
Test [6] relates to Ezh2 expression in Ezh2f/f; PDGFB/H3K27M NSCs. The test can be described thus: Immunoblot of Ezh2 after 4-OHT treatment of Ezh2f/f; PDGFB/H3K27M NSCs (FIG. 3a). The format is cell-based, mouse. To be noted: CreER PDGFB/H3K27M NSCs, 8 days of treatment (FIG. 3a). Here is the method:
Cells were trypsinized, washed once with 1× phosphate buffer saline (PBS) and lysed in TOPEX+ buffer (300 mM NaCl, 50 mM Tris-HCl pH7.5, 0.5% Triton X-100, 1% SDS, 1 mM DTT, Aprotinin, Leupeptin, 0.1 mM phenylmethanesulfonyl fluoride (PMSF) and 33.33 U/mL Benzonase (EMD-Novagen)). Protein concentrations in the cell lysates were measured by Bradford reagent (Bio-Rad). Cell lysates were separated by SDS-PAGE and transferred to nitrocellulose membrane. The antibodies used for the immunoblotting were antibodies specifically recognising H3K27me3 (C36B11, Cell Signaling), H3K27me2, p16^Ink4a, p53, H3K27M, actin, H3 and Ezh2.
For orientation: In western blotting, separated proteins are transferred to a membrane and probed.

Test [7] concerns Ezh2f/f; PDGFB/H3K27M NSCs injected into the mouse pons. Kind of test: Survival of mice injected in the pons with pre-treated Ezh2f/f; PDGFB/H3K27M NSCs (FIG. 3b). Particulars: 10^5 cells pre-treated with 4-OHT vs ethanol.
From the text: Briefly, mice were anesthetized using isoflurane (1.5 L O2/minute and 2.5% isoflurane) and placed in a stereotactic device (David Kopf instruments). […] The hole in the skull was closed with bonewax (Agnthos) and the scalp was closed using clips (Agnthos). The clips were removed after one week of injection.
PDGFB/H3K27M NSCs in mice with Ezh2^f/f; CreER (Ezh2^f/f;PDGFB/H3K27M) background were generated. In these mice Ezh2 could be conditionally deleted.

T1 sequence (Q15910 whole entry): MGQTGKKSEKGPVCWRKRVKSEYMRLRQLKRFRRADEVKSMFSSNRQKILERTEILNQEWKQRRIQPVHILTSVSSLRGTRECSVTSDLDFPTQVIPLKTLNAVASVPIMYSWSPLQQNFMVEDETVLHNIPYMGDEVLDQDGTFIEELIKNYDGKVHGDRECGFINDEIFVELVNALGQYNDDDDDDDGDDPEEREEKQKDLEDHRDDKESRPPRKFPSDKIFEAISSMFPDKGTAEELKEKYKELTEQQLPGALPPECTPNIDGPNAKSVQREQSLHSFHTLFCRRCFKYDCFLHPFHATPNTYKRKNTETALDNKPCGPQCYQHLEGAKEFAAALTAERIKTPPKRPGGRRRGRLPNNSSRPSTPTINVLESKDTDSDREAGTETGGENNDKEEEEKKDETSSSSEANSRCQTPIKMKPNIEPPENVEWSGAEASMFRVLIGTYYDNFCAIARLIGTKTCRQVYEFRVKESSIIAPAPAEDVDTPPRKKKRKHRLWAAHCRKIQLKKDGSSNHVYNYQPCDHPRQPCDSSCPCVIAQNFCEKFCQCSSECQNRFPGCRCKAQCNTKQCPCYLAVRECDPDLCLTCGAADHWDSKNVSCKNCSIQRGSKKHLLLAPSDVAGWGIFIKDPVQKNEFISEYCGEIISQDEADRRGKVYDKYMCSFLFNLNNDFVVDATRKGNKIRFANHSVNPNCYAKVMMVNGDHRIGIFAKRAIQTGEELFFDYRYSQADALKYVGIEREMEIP
T1 sequence (O75530 whole entry partner): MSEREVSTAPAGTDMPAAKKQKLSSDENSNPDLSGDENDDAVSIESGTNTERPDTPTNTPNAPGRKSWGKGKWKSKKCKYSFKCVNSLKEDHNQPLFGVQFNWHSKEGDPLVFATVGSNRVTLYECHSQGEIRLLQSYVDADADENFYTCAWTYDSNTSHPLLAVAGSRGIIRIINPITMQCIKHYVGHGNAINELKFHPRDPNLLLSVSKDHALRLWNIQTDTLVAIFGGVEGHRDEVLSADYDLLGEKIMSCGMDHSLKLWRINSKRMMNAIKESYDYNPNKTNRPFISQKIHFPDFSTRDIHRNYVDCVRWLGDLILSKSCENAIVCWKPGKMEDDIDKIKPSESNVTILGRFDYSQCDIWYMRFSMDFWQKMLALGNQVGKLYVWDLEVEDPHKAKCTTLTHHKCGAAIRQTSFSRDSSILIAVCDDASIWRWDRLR
T1 sequence (Q15022 whole entry partner): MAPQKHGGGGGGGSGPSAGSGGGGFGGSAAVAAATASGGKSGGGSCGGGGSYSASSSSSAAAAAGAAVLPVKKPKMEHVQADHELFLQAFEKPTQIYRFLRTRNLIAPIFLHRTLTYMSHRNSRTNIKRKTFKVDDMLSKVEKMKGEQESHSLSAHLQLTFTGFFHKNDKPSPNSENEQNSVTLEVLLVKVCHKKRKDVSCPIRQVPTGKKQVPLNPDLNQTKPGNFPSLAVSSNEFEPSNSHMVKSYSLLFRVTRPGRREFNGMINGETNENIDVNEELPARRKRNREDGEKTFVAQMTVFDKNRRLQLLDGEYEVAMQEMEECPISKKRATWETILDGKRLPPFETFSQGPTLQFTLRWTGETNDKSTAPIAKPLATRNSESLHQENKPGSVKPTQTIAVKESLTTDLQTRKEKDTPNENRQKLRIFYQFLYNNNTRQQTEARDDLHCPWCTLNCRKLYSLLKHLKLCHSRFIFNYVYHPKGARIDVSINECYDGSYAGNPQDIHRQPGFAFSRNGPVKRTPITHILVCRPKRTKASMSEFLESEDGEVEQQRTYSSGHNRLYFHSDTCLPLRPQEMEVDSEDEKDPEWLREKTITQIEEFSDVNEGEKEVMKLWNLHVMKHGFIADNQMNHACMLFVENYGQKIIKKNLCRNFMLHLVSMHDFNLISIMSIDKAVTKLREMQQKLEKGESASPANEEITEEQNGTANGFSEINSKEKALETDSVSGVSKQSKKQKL
T1 sequence (Q09028 whole entry partner): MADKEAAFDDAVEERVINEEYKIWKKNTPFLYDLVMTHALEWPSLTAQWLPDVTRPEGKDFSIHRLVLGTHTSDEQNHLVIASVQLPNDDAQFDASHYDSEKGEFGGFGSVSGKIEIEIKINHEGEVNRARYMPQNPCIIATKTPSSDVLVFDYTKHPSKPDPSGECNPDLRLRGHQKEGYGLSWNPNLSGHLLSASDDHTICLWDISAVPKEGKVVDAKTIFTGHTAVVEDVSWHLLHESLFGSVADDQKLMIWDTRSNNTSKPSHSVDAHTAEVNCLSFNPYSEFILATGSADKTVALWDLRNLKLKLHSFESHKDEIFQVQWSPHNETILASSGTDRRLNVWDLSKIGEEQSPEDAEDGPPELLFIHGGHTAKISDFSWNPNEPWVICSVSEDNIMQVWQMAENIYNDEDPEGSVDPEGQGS
T1 sequence (Q6ZN18 1-503 partner limits assumed): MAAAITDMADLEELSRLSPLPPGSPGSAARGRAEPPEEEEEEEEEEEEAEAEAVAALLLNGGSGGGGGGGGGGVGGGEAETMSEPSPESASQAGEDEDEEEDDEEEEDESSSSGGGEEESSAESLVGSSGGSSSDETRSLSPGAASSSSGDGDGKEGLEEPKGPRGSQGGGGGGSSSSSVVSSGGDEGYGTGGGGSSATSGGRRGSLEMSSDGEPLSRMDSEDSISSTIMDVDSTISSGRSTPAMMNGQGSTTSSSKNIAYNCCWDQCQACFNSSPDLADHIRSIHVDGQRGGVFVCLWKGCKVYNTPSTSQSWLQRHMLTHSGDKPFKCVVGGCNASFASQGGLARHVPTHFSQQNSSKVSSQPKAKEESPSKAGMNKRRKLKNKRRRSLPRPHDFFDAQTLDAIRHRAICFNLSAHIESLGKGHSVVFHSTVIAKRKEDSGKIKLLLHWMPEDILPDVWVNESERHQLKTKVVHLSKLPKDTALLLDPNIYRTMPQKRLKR

The term IC50 denotes the concentration that inhibits the measured activity by half. GSK343 yielded an IC50 in test [1] of 5 nM. Also, the colonies formed entry in test [2] is on record as “formed fewer colonies”. Besides, the values for the proliferation entry in test [3] and in test [4] were “did not affect their proliferation” and “reduced proliferation”, respectively. In addition, the “EZH2 inhibition (H3K27me3 and H3K27me2 levels by immunoblot)” value in the test on EZH2 is “potent and highly selective EZH2 inhibitors”.
With `CC/C(=C(\c1ccccc1)c1ccc(OCCN(C)C)cc1)c1ccccc1` [Tamoxifen, tamoxifen], in test [5], the survival of mice entry is “significantly longer survival”.
On to 4-hydroxytamoxifen [4-OHT], for which the Ezh2 expression result in test [6] is on record as “complete loss of Ezh2”. Also, in test [7], the survival of mice result is “significantly longer survival”.
Turning to `CCN(c1cc(-c2ccc(CN3CCOCC3)cc2)cc(C(=O)NCc2c(C)cc(C)[nH]c2=O)c1C)C1CCOCC1` [EPZ6438], the colonies formed result in test [2] is reported as “formed fewer colonies”. Besides, the proliferation entry is on record as “did not affect their proliferation” in test [3] and “reduced proliferation” in test [4].
